# In the OligoGym collection:
# After the bases stand the sugars from the 5' end (letter, count) and the backbone: PS all phosphorothioate, else s phosphorothioate and o phosphodiester by linkage. Methylation of C is not given here. e = 2'-O-(2-methoxyethyl) (MOE); k = constrained ethyl (cEt); d = 2'-deoxy (DNA); m = 2'-O-methyl
# Target: HSD17B13
# Conditions: ASO, HepaRG
Sequence,target mRNA inhibition (1 µM),further results
"TGCTACTTGAACAGTC (sugars k3 d9 k3 e1, PS)",68%,–
"TGCTAGTAATTGCATC (sugars k3 d10 k3, PS)",17%,–
"TGCTAGTGCCAAACCA (sugars k3 d1 m1 d8 k3, PS)",80%,target mRNA inhibition (0.02 µM): 7%; target mRNA inhibition (0.078 µM): 29%; target mRNA inhibition (0.313 µM): 46%; target mRNA inhibition (1.25 µM): 67%; target mRNA inhibition (5 µM): 90%
"TGCTGCATTAATGCCA (sugars k3 d1 m1 d8 k3, PS)",32%,–
"TGCTGCATTAATGCCA (sugars k3 d10 k3, PS)",15%,–
"TGCTGCTAGTGCCAAA (sugars k3 d9 k3 e1, PS)",56%,–
"TGCTGCTAGTGCCAAA (sugars kkdddddddddkekek, PS)",40%,–
"TGCTTACGACAGGTCA (sugars k3 d10 k3, PS)",81%,target mRNA inhibition (0.02 µM): 0%; target mRNA inhibition (0.078 µM): 21%; target mRNA inhibition (0.313 µM): 57%; target mRNA inhibition (1.25 µM): 70%; target mRNA inhibition (5 µM): 90%
"TGCTTTAGCTTAAACT (sugars k3 d10 k3, PS)",51%,–
"TGGCTATAGTAATTGC (sugars k3 d10 k3, PS)",34%,–
"TGGCTTAATGTTCAGT (sugars k3 d10 k3, PS)",50%,–
"TGGGAAATTGTTGCTG (sugars k3 d10 k3, PS)",38%,–
"TGGGACCAAGGATATA (sugars kkdddddddddkekek, PS)",30%,–
"TGGGAGTCGGATTATT (sugars k3 d10 k3, PS)",44%,–
"TGGGATACTATTCTCC (sugars k3 d10 k3, PS)",18%,–
"TGGGTCCATTGTTTCT (sugars k3 d10 k3, PS)",35%,–
"TGGTAACGGTGATCAA (sugars k3 d1 m1 d8 k3, PS)",41%,–
"TGGTAACGGTGATCAA (sugars kkdddddddddkekek, PS)",26%,–
"TGTAAGAGTCAGTATC (sugars k3 d1 m1 d8 k3, PS)",29%,–
"TGTAAGAGTCAGTATC (sugars kkdddddddddkekek, PS)",35%,–
"TGTAATAGCCAGTACA (sugars k3 d9 k3 e1, PS)",34%,–
"TGTAATAGCCAGTACA (sugars kkdddddddddkekek, PS)",45%,–
"TGTAATTGGCTCTTGA (sugars k3 d10 k3, PS)",0%,–

Sequence,target mRNA inhibition (1 µM),further results
"TGTACCAAACTTGCCC (sugars k3 d10 k3, PS)",53%,–
"TGTAGTCCTAGGGAGG (sugars k3 d10 k3, PS)",86%,target mRNA inhibition (0.02 µM): 0%; target mRNA inhibition (0.078 µM): 0%; target mRNA inhibition (0.313 µM): 32%; target mRNA inhibition (1.25 µM): 66%; target mRNA inhibition (5 µM): 83%
"TGTAGTGGGAGTCGGA (sugars k3 d1 m1 d8 k3, PS)",50%,–
"TGTAGTGGGAGTCGGA (sugars k3 d9 k3 e1, PS)",53%,–
"TGTATGAGGTCTCTCA (sugars k3 d10 k3, PS)",66%,–
"TGTCCAGGTTGAGATA (sugars k3 d9 k3 e1, PS)",45%,–
"TGTCCAGGTTGAGATA (sugars k3 d10 k3, PS)",48%,–
"TGTGAGAAGGCGGTAT (sugars k3 d10 k3, PS)",20%,–
"TGTTATCAGAAACTTA (sugars k3 d10 k3, PS)",44%,–
"TGTTGATATTCTGTGG (sugars k3 d10 k3, PS)",68%,–
"TTAAAATAGAGTCGGT (sugars k3 d9 k3 e1, PS)",71%,–
"TTAAGAGAAGGTGCAC (sugars k3 d10 k3, PS)",38%,–
"TTAAGATGTCCAGGCA (sugars k3 d10 k3, PS)",35%,–
"TTAATGCCACCCTACC (sugars k3 d9 k3 e1, PS)",20%,–
"TTACAGCATCAAGACA (sugars kkdddddddddkekek, PS)",22%,–
"TTACCAGAGCATTCAT (sugars k3 d10 k3, PS)",50%,–
"TTACCCCTGGCTTTTC (sugars k3 d10 k3, PS)",26%,–
"TTAGAAGTCAGCCCAA (sugars k3 d10 k3, PS)",37%,–
"TTAGAATAGTCTTCAG (sugars k3 d10 k3, PS)",52%,–
"TTAGAGTGAATCATTC (sugars k3 d10 k3, PS)",69%,–
"TTAGATTGCATAAGAG (sugars k3 d10 k3, PS)",61%,–
"TTAGCTTAAACTCCAA (sugars k3 d10 k3, PS)",78%,target mRNA inhibition (0.02 µM): 0%; target mRNA inhibition (0.078 µM): 18%; target mRNA inhibition (0.313 µM): 38%; target mRNA inhibition (1.25 µM): 75%; target mRNA inhibition (5 µM): 82%
"TTAGGATTAATTCCCT (sugars k3 d10 k3, PS)",14%,–

Sequence,target mRNA inhibition (1 µM),further results
"TTAGTCTTGATGTAGT (sugars k3 d10 k3, PS)",61%,–
"TTAGTTAGAATAGTCT (sugars k3 d9 k3 e1, PS)",67%,–
"TTATAACTACAAGAGG (sugars k3 d9 k3 e1, PS)",43%,–
"TTATAGACTGGGTAGG (sugars k3 d10 k3, PS)",51%,–
"TTATGTAATAGCCAGT (sugars k3 d9 k3 e1, PS)",77%,target mRNA inhibition (0.02 µM): 0%; target mRNA inhibition (0.078 µM): 13%; target mRNA inhibition (0.313 µM): 14%; target mRNA inhibition (1.25 µM): 74%; target mRNA inhibition (5 µM): 92%
"TTATGTGATTGAGTTC (sugars k3 d10 k3, PS)",34%,–
"TTATTAGAAGTCAGCC (sugars k3 d10 k3, PS)",36%,–
"TTATTATGAGGATCTG (sugars k3 d10 k3, PS)",50%,–
"TTATTCACCACGATTG (sugars k3 d10 k3, PS)",40%,–
"TTATTGCCTGAACACA (sugars k3 d10 k3, PS)",58%,–
"TTCACAAAAACTGGGC (sugars k3 d10 k3, PS)",37%,–
"TTCAGTCCTTGTGTAG (sugars k3 d10 k3, PS)",45%,–
"TTCCATCTATCAGACT (sugars k3 d1 m1 d8 k3, PS)",38%,–
"TTCCATCTATCAGACT (sugars k3 d9 k3 e1, PS)",43%,–
"TTCTGTGGCATGGCTA (sugars kkdddddddddkekek, PS)",50%,–
"TTCTTACGACTTCATC (sugars k3 d10 k3, PS)",47%,–
"TTCTTATGTAATAGCC (sugars k3 d10 k3, PS)",71%,target mRNA inhibition (0.02 µM): 16%; target mRNA inhibition (0.078 µM): 39%; target mRNA inhibition (0.313 µM): 66%; target mRNA inhibition (1.25 µM): 86%; target mRNA inhibition (5 µM): 96%
"TTCTTATGTAATAGCC (sugars kkdddddddddkekek, PS)",78%,target mRNA inhibition (0.02 µM): 8%; target mRNA inhibition (0.078 µM): 28%; target mRNA inhibition (0.313 µM): 52%; target mRNA inhibition (1.25 µM): 79%; target mRNA inhibition (5 µM): 82%
"TTCTTGAGAGTGATTG (sugars k3 d10 k3, PS)",52%,–
"TTCTUATGTAATAGCC (sugars k3 d1 m1 d8 k3, PS)",66%,–
"TTGAACAGTCTTAAAC (sugars k3 d10 k3, PS)",33%,–
